Assay results as given in paper PMC3894848 (Journal of medicinal chemistry, 2013).
Values belong to the molecule of their own block, whether it stands above or below them.

Assays:
BRD4 BrD1 = BRD4 BrD1 (Homo sapiens, UniProt O60885); assay: Fluorescence anisotropy competition binding assay; conditions: for binding activity toward BRD4 BrD1 (in words): fluorescence anisotropy/polarization assay; for Lipophilic Ligand Efficiency: against BRD4-BrD1, LLE = pKi – ClogP
BRD4 BrD2 = BRD4 BrD2 (Homo sapiens, UniProt O60885); assay: Fluorescence anisotropy competition binding assay, BRD4 BrD2

Compound: Cc1cc(/N=N/c2cc(S(=O)(=O)O)c(C)cc2C)c(N)cc1O [Compound 1, (E)-5-((2-amino-4-hydroxy-5-methylphenyl)diazenyl)-2,4-dimethylbenzenesulfonic acid]
binding activity toward BRD4 BrD1 (in words) (BRD4 BrD1): modest activity

Compound: Cc1cc(C)c(S(=O)(=O)O)cc1/N=N/c1cc(C)c(O)c(C)c1 [Compound 2, (E)-5-(3,5-dimethyl-4-hydroxyphenylazo)-2,4-dimethylbenzenesulfonic acid]
improvement in binding affinity to the BRD4 BrDs over MS120 (1) (BRD4 BrD1; vs MS120 (1), both BRD4 BrDs): 2–3 fold

Compound: Cc1cc(/N=N/c2cccc(S(=O)(=O)Nc3ccccn3)c2)cc(C)c1O [Compound 3, (E)-3-((4-hydroxy-3,5-dimethylphenyl)diazenyl)-N-(pyridin-2-yl)benzenesulfonamide]
binding activity toward BRD4 BrD1 (in words) (BRD4 BrD1): retained the affinity of 2

Compound: Cc1cc(/N=N/c2ccc(S(=O)(=O)NCc3ccc(C(F)(F)F)cc3)cc2)cc(C)c1O [Compound 5, (E)-4-((4-hydroxy-3,5-dimethylphenyl)diazenyl)-N-(4-(trifluoromethyl)benzyl)benzenesul-fonamide]
binding activity toward BRD4 BrD1 (in words) (BRD4 BrD1): deteriorated drastically

Compound: Cc1cc(/N=N/c2ccc(S(=O)(=O)N(C)c3ccccn3)cc2)cc(C)c1O [Compound 6, (E)-4-((4-hydroxy-3,5-dimethylphenyl)diazenyl)-N-methyl-N-(pyridin-2-yl)benzenesul-fonamide]
loss in activity/affinity toward BRD4 BrD1 vs MS435 (BRD4 BrD1; vs MS435): 9 fold

Compound: Cc1cc(/N=N/c2ccc(S(=O)(=O)Nc3ccc(C(=O)O)cn3)cc2)cc(C)c1O [Compound 9, (E)-6-(4-((4-hydroxy-3,5-dimethylphenyl)diazenyl)phenylsulfonamido)nicotinic acid]
better affinity/potency toward BRD4 BrD1 than MS435 (BRD4 BrD1; vs MS435): about 3 fold

Compound: COc1ccc(NS(=O)(=O)c2ccc(/N=N/c3cc(C)c(O)c(C)c3)cc2)nc1 [Compound 12, (E)-4-((4-hydroxy-3,5-dimethylphenyl)diazenyl)-N-(5-methoxypyridin-2-yl)benzenesulfon-amide]
improvement in binding affinity to the BRD4 BrD1 by nitrogen in the C ring (BRD4 BrD1; 12 vs. 13): 13 fold | selectivity for the BrD1 over the BrD2 of BRD4 (BRD4 BrD1; ratio of binding affinities): 4 fold | increase in binding affinity for the BRD4 BrD2 by nitrogen in the C ring (BRD4 BrD2; 12 vs. 13): 3 fold

Compound: COc1cc(/N=N/c2ccc(S(=O)(=O)Nc3ccccn3)cc2)c(N)cc1O [Compound 30, (E)-4-((2-amino-4-hydroxy-5-methoxyphenyl)diazenyl)-N-(pyridin-2-yl)benzenesulfon-amide]
reduction in binding affinity to the BRD4 BrD1 vs MS436 (BRD4 BrD1): 15 fold | reduction in binding affinity to the BRD4 BrD2 vs MS436 (BRD4 BrD2): 15 fold

Compound: Cc1nc(/N=N/c2ccc(S(=O)(=O)Nc3ccccn3)cc2)c(C)c(C)c1O [Compound 32, (E)-4-((5-hydroxy-3,4,6-trimethylpyridin-2-yl)diazenyl)-N-(pyridin-2-yl)benzenesulfon-amide]
loss in activity/affinity toward BRD4 BrD1 vs MS435 (BRD4 BrD1; vs MS435): 3 fold

Compound: Cc1cc(/N=N/c2ccc(S(=O)(=O)NCc3ccc(C(F)(F)F)cc3)cc2)ccc1O [Compound 35, (E)-4-((4-hydroxy-3-methylphenyl)diazenyl)-N-(4-(trifluoromethyl)benzyl)benzenesulfon-amide]
binding activity toward BRD4 BrD1 (in words) (BRD4 BrD1): deteriorated drastically

Compound: Cc1cc(/N=N/c2ccc(S(=O)(=O)NCc3ccc(C(F)(F)F)cc3)cc2)c(N)cc1O [Compound 36, (E)-4-((2-amino-4-hydroxy-5-methylphenyl)diazenyl)-N-(4-(trifluoromethyl)benzyl)benzene sulfonamide]
binding activity toward BRD4 BrD1 (in words) (BRD4 BrD1): deteriorated drastically

Compound: CC(C)(C)c1cc(/N=N/c2ccc(S(=O)(=O)Nc3ccccn3)cc2)cc(C(C)(C)C)c1O [Compound 42, (E)-4-((3,5-di-tert-butyl-4-hydroxyphenyl)diazenyl)-N-(pyridin-2-yl)benzenesulfonamide]
binding activity toward BRD4 BrD1 (in words) (BRD4 BrD1): almost completely lost their activities

Compound: Cc1cc(/N=N/c2cccc(S(=O)(=O)Nc3ccccn3)c2)c(N)cc1O [Compound 51, (E)-3-((2-amino-4-hydroxy-5-methylphenyl)diazenyl)-N-(pyridin-2-yl)benzenesulfonamide]
reduction in binding affinity to the BRD4 BrD1 vs MS436 (BRD4 BrD1): 10 fold | reduction in binding affinity to the BRD4 BrD2 vs MS436 (BRD4 BrD2): 3 fold

Further lines, results first:

Lipophilic Ligand Efficiency (BRD4 BrD1): 0.78 | improvement of affinity for the BRD4 BrD1 vs compound 3 (BRD4 BrD1; vs 3): over 6 fold
Compound: Cc1cc(/N=N/c2ccc(S(=O)(=O)Nc3ccccn3)cc2)cc(C)c1O [Compound 4, (E)-4-((4-hydroxy-3,5-dimethylphenyl)diazenyl)-N-(pyridin-2-yl)benzenesulfonamide]

Lipophilic Ligand Efficiency (BRD4 BrD1): 2.77 | reduction in binding affinity to the BRD4 BrD1 vs MS436 (BRD4 BrD1): about 2 fold
Compound: Cc1cc(/N=N/c2ccc(S(=O)(=O)Nc3ccccn3)cc2)c(N)c(C)c1O [Compound 28, (E)-4-((2-amino-4-hydroxy-3,5-dimethylphenyl)diazenyl)N-(pyridin-2-yl)benzenesulfon-amide]

loss in activity/affinity toward BRD4 BrD1 vs MS435 (BRD4 BrD1; vs MS435): 3 fold
Compound: Cc1cc(/N=N/c2ccc(S(=O)(=O)Nc3ccccn3)cc2)nc(C)c1O [Compound 31, (E)-4-((5-hydroxy-4,6-dimethylpyridin-2-yl)diazenyl)-N-(pyridin-2-yl)benzenesulfonamide]

binding activity toward BRD4 BrD1 (in words) (BRD4 BrD1): completely lost binding activity
Compound: COc1c(C)cc(/N=N/c2ccc(S(=O)(=O)Nc3ccccn3)cc2)cc1C [Compound 37, (E)-4-((4-methoxy-3,5-dimethylphenyl)diazenyl)-N-(pyridin-2-yl)benzenesulfonamide]

binding activity toward BRD4 BrD1 (in words) (BRD4 BrD1): completely lost binding activity
Compound: CC(=O)Nc1c(C)cc(/N=N/c2ccc(S(=O)(=O)Nc3ccccn3)cc2)cc1C [Compound 38, (E)-N-(2,6-dimethyl-4-((4-(N-(pyridin-2-yl)sulfamoyl)phenyl)diazenyl)phenyl)acetamide]

loss in activity/affinity toward BRD4 BrD1 vs MS435 (BRD4 BrD1; vs MS435): about 10 fold
Compound: CC(C)c1cc(/N=N/c2ccc(S(=O)(=O)Nc3ccccn3)cc2)ccc1O [Compound 39, (E)-4-((4-hydroxy-3-isopropylphenyl)diazenyl)-N-(pyridin-2-yl)benzenesulfonamide]

loss in activity/affinity toward BRD4 BrD1 vs MS435 (BRD4 BrD1; vs MS435): about 10 fold
Compound: CC(C)(C)c1cc(/N=N/c2ccc(S(=O)(=O)Nc3ccccn3)cc2)ccc1O [Compound 40, (E)-4-((3-(tert-butyl)-4-hydroxyphenyl)diazenyl)-N-(pyridin-2-yl)benzenesulfonamide]

binding activity toward BRD4 BrD1 (in words) (BRD4 BrD1): almost completely lost their activities
Compound: CC(C)c1cc(/N=N/c2ccc(S(=O)(=O)Nc3ccccn3)cc2)cc(C(C)C)c1O [Compound 41, (E)-4-((4-hydroxy-3,5-diisopropylphenyl)diazenyl)-N-(pyridin-2-yl)benzenesulfonamide]
